Data on one compound can be found in PMC7170309, “Imidazopyridine-fused [1,3]diazepinones: modulations of positions 2 to 4 and their impacts on the anti-melanoma activity” (Journal of Enzyme Inhibition and Medicinal Chemistry, 2020).

The test system of data set [1] is A375 melanoma cells. As to the kind of experiment: Neutral red uptake (NRU) viability assay, A375. The settings on record: Homo sapiens, A-375, 72 h, mean ± SD of three experiments. In kind it is cell-based, human. As for the experimental part:
(§1) Melanoma human cancer cell line (A375 and MDA-MB-435) were obtained from ATCC. The NIH-3T3 cell line was generously gifted by the ANSM (French National Agency for Medicines and Health Products Safety, Vendargues, France). Cells were cultured in Dulbecco’s Modified Eagle Medium (DMEM, Sigma Aldrich) supplemented with 10% heat-inactivated foetal calf serum (FCS, Gibco), 2 mM glutamax (Gibco), 100 IU/mL penicillin G sodium (Sigma Aldrich), 100 lU/mL streptomycin sulphate (Sigma Aldrich). The cells were allowed to grow at 37 °C in a fully humidified atmosphere containing 5% CO2.
(§2) A viability assay was used to evaluate the cytotoxic activity on A375 and MDA-MB-435 melanoma cells as previously described. According to OCDE/ICCVAM guidance n°129, NRU assay was also used to evaluate the toxicity on the non-cancerous NIH-3T3 cells. Cells were seeded at a final concentration of 2000 cells/well (A375), 3000 cells/well (NIH-3T3) or 7500 cells/well (MDA-MB-435) in 96-well microtiter plates for 24 h. Then, cells were exposed to two negative controls (1% DMSO in culture medium (vehicle) and culture medium alone), or to different compounds freshly dissolved in DMSO, in a range of concentration from 0.01 to 40 µM (six wells per concentration). After 72 h of incubation, cells were stained with new medium containing 50 µg/mL of neutral red (3-amino-7-dimethylamino-2-methylphenazine hydrochloride, Sigma Aldrich) at 37 °C for 2 h. The neutral red medium solution was then removed and the wells were washed with PBS. Finally, 100 µL of solution containing ethanol, acetic acid and water (50/1/49 v/v/v respectively) were added into the wells and the absorbance was measured at 540 nm using the microplate reader 352 Multiscan MS (Labsystems). Cell survival rates were normalised to the absorbance values of untreated control cells. IC50 was obtained using a logistic regression model on Graphpad Prism 5.0 software. Results are given as the mean ± standard deviation (SD) of three independent experiments. Statistical analysis was performed using the Student’s t-test.

Data set [2] deals with NIH-3T3 non-cancerous cells. Kind of data set: Neutral red uptake (NRU) toxicity assay, NIH-3T3. In kind it is cell-based. The conditions noted are these: Mus musculus, NIH3T3, 72 h, non-cancerous mouse fibroblasts. As for the experimental part: as §1, §2
Then, all active compounds on the two melanoma cell lines (IC50 < 40 µM) were assessed on the NIH-3T3 mouse fibroblast cell line, in order to check the toxicity of our compounds on non-cancerous cells. […] As a possible modification of the mechanism of action was hypothesised for these two derivatives (see above), this phenomenon could probably be also correlated with the cytotoxicity observed on the NIH-3T3 cell line.

The nature of data set [3]: Hydrolysis of ester 19 into acid 21 in the presence of melanoma cells and culture medium (HPLC-MS). It counts as in vitro ADME. The conditions noted are these: after 72 h in the presence of melanoma cells and culture medium. An excerpt:
Then, we turned our attention to the SAR study of the position 4 of the diazepine ring, keeping constant the 4-bromophenyl group at R^2 (i.e. compounds 13–17 and 19–22). […] Introduction of a ramified isobutyl chain (compound 15) led also to a loss of the activity (entry 13, Table 1). […] In the same way, a less flexible chain bearing an alkyne group (compound 14) was not tolerated, as well as a long chain (compound 22) (Table 1, entries 12 and 20 respectively).

The subject of data set [4] is MDA-MB-435 melanoma cells. As to the kind of experiment: Neutral red uptake (NRU) viability assay, MDA-MB-435. In kind it is cell-based, human. The conditions noted are these: Homo sapiens, MDA-MB-435; NRU assay, 72 h, mean ± SD of three experiments. On the procedure: as §1, §2

SMILES strings stand for the structures.

For orientation: IC50 means the concentration at which inhibition is half-maximal. A higher IC50 goes with a need for much substance. Broadly, the melting point is the temperature, or range, at which the solid turns liquid. Compound `O=C(C[C@@H]1NC(c2ccc(Br)cc2)=Nc2nc3ccccn3c2C1=O)OCc1ccccc1` [Compound 19, (4S)-benzyl [2-(4-bromophenyl)-5-oxo-4,5-dihydro-3H-pyrido[1’,2’:1,2]imidazo[4,5-d][1,3]diazepin-4-yl]acetate] showed a melting point of 72.5 to 73.5 °C. The compound further gave an IC50 in data set [1] of 9.78 ± 0.83 µM. Moreover, the IC50 in data set [2] was over 40 µM. Besides, in data set [3], the “hydrolysis rate (conversion into acid 21)” value is 65.5%. Besides, half-maximal inhibition in data set [4] (IC50) was put at 19.4 ± 0.64 µM.
